Source: patent US7541336B2 (priority 2002, dated 2009)

Legend:
[1] = Solubility in solvent; assay type: physicochemical
[2] = test system: Caenorhabditis elegans; assay: Anti-nematode activity, 96 well plate; assay type: in vivo; settings: at 20 μg/ml, observed after 2 days under microscope
Procedure: (§1) Methanol solution of FKI-1033 substance was added into 96 well plate (Corning Inc., the U.S.), removed off methanol in vacuo, added 250 μl of test medium (lecithin 0.01%, sodium hydrogen carbonate 7.5 mM, potassium chloride 7.5 mM, calcium chloride dihydrate 7.5 mM and magnesium sulfate heptahydrate 7.5 mM) and shaken for 15 min. 50 μl of buffer containing several nauplii of Artemia salina, which were hatched off in the buffer, was added thereto, and about ten nematodes, Caenorhabditis elegans, which were bred on agar medium for growth of nematode, were added thereto.

[3] = molecular target: T1, ryanodine receptor of Periplaneta americana origin (Periplaneta americana, UniProt A0ABQ8T696); assay: Ryanodine binding inhibition, crude ryanodine receptor of Periplaneta americana
T1 sequence (A0ABQ8T696 1-1387): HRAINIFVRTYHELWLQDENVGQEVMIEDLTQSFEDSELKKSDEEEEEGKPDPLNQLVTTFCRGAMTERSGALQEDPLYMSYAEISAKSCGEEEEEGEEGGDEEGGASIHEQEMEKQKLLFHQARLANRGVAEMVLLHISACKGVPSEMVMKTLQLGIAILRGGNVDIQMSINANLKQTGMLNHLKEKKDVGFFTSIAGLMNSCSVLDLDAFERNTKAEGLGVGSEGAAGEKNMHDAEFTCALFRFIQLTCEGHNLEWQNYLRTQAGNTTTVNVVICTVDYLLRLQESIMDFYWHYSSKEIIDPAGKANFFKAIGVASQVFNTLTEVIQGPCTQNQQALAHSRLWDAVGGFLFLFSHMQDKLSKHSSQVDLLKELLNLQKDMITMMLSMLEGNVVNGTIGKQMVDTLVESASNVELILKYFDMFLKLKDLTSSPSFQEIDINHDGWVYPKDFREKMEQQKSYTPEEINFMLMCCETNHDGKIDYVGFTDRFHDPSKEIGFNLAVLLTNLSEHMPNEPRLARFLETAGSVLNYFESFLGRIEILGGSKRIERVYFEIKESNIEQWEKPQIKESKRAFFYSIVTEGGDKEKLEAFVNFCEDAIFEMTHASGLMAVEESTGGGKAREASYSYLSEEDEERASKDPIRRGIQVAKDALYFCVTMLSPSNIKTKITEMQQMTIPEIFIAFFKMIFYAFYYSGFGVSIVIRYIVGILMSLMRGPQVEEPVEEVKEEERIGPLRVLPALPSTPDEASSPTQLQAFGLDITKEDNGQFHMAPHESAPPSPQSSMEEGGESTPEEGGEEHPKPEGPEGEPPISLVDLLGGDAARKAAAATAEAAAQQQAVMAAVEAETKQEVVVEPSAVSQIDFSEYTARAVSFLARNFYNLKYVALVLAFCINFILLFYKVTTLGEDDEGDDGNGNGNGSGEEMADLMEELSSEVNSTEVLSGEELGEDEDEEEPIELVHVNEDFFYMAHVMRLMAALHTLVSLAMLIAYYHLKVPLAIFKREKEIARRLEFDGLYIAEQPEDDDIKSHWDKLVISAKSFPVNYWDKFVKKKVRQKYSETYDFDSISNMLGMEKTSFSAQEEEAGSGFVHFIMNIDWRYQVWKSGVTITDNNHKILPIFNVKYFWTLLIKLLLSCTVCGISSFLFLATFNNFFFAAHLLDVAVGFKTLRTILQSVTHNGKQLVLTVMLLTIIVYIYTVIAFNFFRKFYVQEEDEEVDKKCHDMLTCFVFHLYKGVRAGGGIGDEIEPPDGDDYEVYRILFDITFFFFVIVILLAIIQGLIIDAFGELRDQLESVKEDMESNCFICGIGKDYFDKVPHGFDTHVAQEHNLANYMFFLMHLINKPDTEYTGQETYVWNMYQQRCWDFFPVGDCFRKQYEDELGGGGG
Procedure: (1) Preparation of the Crude Ryanodine Receptor Fraction of the Insect was Performed as Follows.
The thorax and legs of ten adult insects of Periplaneta americana were frozen with liquid nitrogen and finely cut, and homogenized three times in 15 ml of 50 mM Tris HCl buffer (pH 7.4) containing 4 μg/ml leupeptin and 3 μg/ml pepstatin by using a knife homogenizer at 0° C., 24,000 rpm for 30 sec. The homogenate was filtered using double layered cotton cloth and the filtrate was centrifuged at 4° C., 3,000 rpm for 20 minutes. The obtained supernatant was centrifuged at 4° C., 30,000 rpm for 30 minutes and the precipitate suspended in 1 ml of 20 mM Tris HCl buffer (pH 8.0) containing 0.3 M sucrose, 500 μM calcium chloride and 1.5 M potassium chloride and homogenized with glass potter to obtain crude ryanodine receptor fraction. The crude ryanodine receptor fraction was used by diluting about 7 times with the buffer A (20 mM Tris-HCl buffer (pH 8.0) containing 4 μg/ml aprotinin, 4 μgμml leupeptin, 0.3 M sucrose and 500 μM calcium chloride) immediately before use. […]
70 μl of the buffer A, 10 μl of ethanol solution of 0.1 nM ryanodine and 10 μl of 20 nM [9,21-^3H] […] Radioactivity was measured by measuring fluorescence intensity of the filter with using scintillation counter (Wallac Inc. the U.S., MicroBeta™ TriLux)

[4] = molecular target: ryanodine receptor of mouse origin (Mus musculus, UniProt E9PZQ0); assay: Ryanodine binding inhibition, crude mammalian ryanodine receptor
ryanodine receptor of mouse origin, sequence (E9PZQ0 whole entry): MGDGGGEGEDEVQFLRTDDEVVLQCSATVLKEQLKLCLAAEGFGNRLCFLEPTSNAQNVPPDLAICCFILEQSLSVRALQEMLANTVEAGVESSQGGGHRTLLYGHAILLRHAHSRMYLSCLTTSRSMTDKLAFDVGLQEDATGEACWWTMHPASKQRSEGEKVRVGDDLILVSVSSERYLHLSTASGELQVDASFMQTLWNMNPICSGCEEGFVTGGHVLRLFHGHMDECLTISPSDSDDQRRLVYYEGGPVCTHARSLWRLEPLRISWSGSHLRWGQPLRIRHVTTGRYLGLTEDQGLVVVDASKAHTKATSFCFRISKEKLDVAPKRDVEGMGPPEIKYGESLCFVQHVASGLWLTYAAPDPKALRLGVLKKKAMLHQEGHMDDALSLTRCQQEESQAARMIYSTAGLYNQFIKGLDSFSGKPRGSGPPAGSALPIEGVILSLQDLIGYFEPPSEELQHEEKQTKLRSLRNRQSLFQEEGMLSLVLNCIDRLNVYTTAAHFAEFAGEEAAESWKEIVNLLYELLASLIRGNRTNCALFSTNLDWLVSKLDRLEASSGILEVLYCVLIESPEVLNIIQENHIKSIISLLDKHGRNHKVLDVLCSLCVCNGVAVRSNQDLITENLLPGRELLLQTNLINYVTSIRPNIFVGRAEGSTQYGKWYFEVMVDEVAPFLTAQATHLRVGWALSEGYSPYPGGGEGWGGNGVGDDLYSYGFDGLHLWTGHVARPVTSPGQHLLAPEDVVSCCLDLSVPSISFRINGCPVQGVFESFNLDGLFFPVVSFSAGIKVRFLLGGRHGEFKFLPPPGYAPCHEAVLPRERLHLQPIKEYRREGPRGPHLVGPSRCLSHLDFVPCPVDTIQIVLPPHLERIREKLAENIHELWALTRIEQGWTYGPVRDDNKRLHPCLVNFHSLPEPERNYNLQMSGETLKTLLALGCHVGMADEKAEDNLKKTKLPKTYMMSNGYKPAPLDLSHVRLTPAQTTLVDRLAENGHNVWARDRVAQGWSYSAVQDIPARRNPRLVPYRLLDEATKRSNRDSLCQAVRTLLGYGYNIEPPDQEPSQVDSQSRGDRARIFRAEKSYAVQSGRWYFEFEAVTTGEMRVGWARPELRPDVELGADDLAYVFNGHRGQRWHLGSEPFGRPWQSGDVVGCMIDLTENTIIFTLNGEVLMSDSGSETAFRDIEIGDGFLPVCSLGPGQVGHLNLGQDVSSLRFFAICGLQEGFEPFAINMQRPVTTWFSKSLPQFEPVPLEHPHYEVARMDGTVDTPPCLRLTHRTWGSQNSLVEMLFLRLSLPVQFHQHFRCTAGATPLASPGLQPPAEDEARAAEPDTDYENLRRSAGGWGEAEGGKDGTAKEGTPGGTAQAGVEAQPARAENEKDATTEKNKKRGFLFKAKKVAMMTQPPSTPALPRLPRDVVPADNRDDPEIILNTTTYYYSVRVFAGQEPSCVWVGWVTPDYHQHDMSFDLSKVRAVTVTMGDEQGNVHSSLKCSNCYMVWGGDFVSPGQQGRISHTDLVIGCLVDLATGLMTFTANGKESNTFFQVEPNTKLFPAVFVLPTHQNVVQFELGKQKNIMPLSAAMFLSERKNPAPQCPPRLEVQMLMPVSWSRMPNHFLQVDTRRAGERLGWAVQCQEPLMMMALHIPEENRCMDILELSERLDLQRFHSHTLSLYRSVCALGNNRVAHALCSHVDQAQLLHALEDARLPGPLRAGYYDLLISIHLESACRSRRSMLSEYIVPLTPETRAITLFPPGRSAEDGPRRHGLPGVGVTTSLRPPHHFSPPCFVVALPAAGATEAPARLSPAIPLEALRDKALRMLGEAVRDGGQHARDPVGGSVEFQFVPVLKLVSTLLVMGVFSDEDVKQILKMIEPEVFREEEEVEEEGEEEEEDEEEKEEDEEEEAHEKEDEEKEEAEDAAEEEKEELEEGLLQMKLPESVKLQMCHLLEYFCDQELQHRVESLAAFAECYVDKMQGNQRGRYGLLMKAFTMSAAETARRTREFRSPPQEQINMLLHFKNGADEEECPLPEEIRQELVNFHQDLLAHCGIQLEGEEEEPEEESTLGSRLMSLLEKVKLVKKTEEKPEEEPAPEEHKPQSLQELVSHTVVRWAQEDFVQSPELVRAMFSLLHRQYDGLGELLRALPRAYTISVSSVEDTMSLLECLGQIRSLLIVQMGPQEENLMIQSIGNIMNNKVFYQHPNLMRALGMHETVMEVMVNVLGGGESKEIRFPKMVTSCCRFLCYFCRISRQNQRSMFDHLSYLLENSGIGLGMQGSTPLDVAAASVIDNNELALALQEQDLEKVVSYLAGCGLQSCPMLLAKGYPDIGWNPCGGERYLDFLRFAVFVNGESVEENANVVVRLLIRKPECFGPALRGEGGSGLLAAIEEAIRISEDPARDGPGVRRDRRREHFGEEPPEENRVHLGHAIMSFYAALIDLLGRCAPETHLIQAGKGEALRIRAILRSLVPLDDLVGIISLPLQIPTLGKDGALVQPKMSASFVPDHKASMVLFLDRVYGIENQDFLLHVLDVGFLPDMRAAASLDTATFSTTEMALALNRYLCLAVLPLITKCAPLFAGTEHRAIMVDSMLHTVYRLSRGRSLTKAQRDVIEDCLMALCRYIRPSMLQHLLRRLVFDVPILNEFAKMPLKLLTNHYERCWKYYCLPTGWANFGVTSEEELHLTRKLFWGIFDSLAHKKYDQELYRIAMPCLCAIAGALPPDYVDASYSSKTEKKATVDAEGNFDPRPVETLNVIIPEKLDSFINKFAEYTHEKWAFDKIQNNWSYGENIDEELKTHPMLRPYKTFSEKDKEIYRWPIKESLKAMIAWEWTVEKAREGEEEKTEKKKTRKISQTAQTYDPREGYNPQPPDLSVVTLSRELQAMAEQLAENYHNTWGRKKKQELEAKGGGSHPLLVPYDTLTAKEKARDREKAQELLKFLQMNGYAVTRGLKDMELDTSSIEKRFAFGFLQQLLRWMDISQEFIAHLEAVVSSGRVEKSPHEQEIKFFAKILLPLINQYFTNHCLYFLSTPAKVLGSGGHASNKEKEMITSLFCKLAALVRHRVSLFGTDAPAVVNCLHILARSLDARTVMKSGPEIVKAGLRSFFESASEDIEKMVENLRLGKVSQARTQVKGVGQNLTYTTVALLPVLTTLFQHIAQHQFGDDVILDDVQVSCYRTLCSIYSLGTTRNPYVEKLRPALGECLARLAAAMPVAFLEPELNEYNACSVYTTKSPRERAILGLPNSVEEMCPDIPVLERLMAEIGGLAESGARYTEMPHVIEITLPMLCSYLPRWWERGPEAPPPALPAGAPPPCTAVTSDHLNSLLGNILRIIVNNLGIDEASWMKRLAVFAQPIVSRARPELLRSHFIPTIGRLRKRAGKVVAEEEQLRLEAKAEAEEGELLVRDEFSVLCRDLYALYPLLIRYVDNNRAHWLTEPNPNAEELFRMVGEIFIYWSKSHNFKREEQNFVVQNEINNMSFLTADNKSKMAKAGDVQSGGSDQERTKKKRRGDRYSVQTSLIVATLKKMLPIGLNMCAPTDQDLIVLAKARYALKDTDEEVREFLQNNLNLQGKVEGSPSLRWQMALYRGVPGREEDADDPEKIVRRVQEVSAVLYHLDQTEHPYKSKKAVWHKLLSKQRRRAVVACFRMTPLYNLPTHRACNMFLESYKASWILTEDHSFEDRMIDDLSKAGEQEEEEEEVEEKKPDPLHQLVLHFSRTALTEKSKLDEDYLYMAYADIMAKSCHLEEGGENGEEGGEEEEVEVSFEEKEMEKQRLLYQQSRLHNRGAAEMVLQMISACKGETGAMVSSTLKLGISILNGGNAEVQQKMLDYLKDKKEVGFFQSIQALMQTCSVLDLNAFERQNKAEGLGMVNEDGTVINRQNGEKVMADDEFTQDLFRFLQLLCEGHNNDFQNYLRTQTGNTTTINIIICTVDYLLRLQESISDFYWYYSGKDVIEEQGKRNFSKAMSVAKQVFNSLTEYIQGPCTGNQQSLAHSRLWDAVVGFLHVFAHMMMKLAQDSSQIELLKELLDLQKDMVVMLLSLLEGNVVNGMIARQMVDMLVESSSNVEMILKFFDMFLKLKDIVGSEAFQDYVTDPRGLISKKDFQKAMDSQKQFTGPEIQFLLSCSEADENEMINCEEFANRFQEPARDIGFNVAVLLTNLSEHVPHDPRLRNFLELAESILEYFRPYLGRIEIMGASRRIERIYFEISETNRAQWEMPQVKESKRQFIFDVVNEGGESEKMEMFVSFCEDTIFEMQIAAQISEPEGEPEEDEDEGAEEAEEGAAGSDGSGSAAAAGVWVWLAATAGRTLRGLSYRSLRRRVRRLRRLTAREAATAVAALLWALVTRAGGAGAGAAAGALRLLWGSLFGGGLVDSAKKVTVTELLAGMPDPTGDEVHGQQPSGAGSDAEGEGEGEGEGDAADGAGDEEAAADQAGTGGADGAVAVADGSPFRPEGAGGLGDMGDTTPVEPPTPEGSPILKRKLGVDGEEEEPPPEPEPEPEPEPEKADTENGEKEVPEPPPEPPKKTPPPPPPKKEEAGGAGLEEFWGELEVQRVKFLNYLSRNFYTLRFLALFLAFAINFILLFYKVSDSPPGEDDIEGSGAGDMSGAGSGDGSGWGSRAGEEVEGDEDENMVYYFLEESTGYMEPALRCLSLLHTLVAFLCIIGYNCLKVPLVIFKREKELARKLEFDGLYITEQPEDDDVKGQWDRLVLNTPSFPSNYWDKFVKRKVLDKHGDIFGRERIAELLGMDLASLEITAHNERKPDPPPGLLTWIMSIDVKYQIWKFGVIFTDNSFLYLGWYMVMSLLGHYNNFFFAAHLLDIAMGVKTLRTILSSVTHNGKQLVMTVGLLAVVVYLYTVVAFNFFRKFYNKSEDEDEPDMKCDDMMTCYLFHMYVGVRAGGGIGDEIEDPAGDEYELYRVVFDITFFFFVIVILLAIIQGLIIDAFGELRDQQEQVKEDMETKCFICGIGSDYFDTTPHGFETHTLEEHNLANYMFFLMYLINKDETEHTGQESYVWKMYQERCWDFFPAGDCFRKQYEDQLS
Procedure: (2) Preparation of Mammalian Crude Ryanodine Receptor Fraction was Performed as Follows.
Muscles of the hind legs of ICR mouse were finely cut, and 3.0 g thereof was homogenized at 0° C., 1,000 rpm for 3×30 sec using glass homogenizer in 15 ml of buffer B (20 mM Tris-HCl buffer (pH 8.0) containing 4 μg/ml aprotinin and 4 μg/ml leupeptin). The homogenate was transferred into the micro test tube, and the glass homogenizer was also washed with the 7.5 ml of buffer B, and the washed solution was also added to the micro test tube, which was stirred, then centrifuged by using ultracentrifuge cooled at 4° C., 25,000×g for 40 min. 2.4 ml of the buffer B was added to the obtained precipitate and suspended to obtain the crude ryanodine receptor fraction of mouse origin.
(4) Binding Activity of Crude Mammalian Ryanodine Receptor was Assayed aAs Follows.
70 μl of the buffer A, 10 μl of ethanol solution of 0.1 nM ryanodine and 10 μl of 20 nM [9,21-^3H] (N) ryanodine were added into the 96 well microplate (Corning Inc. the U.S.). 10 μl of crude ryanodine receptor fraction of mouse origin was added to initiate the reaction, and shaken at room temperature for 90 min. by using microplate mixer. […] Radioactivity was measured by measuring fluorescence intensity of the filter with using scintillation counter (Wallac Inc. the U.S., MicroBeta™ TriLux).

[5] = test system: nauplii of Artemia salina; assay: Anti-arthropod activity, 96 well plate; assay type: in vivo; settings: at 20 μg/ml, observed after 2 days under microscope
Procedure: as §1

CCCCCC1OC(=O)C(C)N(C)C(=O)C(CCCCC)OC(=O)C(C)N(C)C(=O)C(CCCCC)OC(=O)C(C)N(C)C(=O)C(CCCCC)OC(=O)C(C)N(C)C1=O (stereo not shown) [FKI-1033 substance]
Solubility in solvent ([1]; methanol, ethanol, ethyl acetate and chloroform): Soluble
Solubility in solvent ([1]; water and n-hexane): Hardly soluble
growth inhibition of the nematodes (Caenorhabditis elegans) [2]: inhibited growth
potency of ryanodine binding inhibition against the insect ryanodine receptor versus the mammalian ryanodine receptor ([3]; insect (Periplaneta americana) vs mammalian (mouse) receptor): more than ten times potent
IC50 ([3]; read-out: ryanodine binding inhibition activity, IC50, crude ryanodine receptor fraction of Periplaneta americana, [9,21-3H](N) ryanodine, room temperature 90 min): 4.2 µM
IC50 [4]: 53.9 µM
growth inhibition of the arthropods (Artemia salina) [5]: inhibited growth
